Among the data in publication PMC6934184, “Selective DNA-PKcs inhibition extends the therapeutic index of localized radiotherapy and chemotherapy” (The Journal of Clinical Investigation, 2019) are inhibition values, retold here.

This assay deals with T1, MAP3K5 (ASK1) (Homo sapiens, UniProt Q99683).
T1 construct: purchased Thermo Fisher Scientific (Life Technologies) SelectScreen
As to the kind of experiment: SelectScreen LanthaScreen. Type of assay: binding. As to conditions: read-out: % displacement. The essentials: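 NU5455 was profiled across the SelectScreen Broad panel of kinase activity and binding assays. Z'LYTE reactions such as CSF1R ran at apparent Km ATP, while the Adapta CAMK1 assay used ATP listed as 10. Values are given as percent.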

T1 sequence (Q99683 whole entry): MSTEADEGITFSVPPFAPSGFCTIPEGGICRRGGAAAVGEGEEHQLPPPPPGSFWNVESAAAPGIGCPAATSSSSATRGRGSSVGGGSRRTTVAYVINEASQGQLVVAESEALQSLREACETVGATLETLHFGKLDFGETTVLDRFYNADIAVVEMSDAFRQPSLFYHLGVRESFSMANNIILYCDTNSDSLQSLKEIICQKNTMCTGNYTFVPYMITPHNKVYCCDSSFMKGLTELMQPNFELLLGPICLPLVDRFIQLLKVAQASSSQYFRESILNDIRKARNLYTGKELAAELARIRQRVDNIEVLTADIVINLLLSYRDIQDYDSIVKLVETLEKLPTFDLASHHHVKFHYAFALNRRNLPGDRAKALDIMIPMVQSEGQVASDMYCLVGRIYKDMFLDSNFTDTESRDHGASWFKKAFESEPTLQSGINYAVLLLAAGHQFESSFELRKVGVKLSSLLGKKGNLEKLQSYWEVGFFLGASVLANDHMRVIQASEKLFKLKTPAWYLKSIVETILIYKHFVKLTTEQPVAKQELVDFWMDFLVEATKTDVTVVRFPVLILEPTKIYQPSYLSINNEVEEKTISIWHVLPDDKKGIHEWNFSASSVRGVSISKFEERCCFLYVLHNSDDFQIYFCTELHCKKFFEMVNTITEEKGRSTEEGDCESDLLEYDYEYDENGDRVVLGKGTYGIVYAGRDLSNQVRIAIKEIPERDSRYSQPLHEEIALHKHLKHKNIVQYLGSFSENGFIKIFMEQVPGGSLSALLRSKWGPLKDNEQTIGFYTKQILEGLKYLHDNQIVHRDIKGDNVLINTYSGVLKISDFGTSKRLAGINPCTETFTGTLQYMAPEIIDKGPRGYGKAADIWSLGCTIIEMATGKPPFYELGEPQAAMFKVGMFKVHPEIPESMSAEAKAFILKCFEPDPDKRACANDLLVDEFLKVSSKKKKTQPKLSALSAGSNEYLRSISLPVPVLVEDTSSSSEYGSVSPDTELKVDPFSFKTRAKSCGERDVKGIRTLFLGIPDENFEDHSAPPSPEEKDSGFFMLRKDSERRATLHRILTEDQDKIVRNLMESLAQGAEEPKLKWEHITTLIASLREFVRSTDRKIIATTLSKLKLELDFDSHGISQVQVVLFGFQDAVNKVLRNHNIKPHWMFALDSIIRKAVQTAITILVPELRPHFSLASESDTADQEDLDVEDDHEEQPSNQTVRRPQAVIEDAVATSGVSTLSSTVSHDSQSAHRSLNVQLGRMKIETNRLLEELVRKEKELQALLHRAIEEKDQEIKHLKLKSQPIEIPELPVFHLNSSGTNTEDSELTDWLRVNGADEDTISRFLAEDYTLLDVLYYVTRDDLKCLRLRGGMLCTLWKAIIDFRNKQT

For the molecule `CN(C(=O)CN1CCOCC1)c1ccc2sc3c(-c4cccc5c(=O)cc(N6CC7CCC(C6)O7)oc45)cccc3c2c1` [NU5455], the inhibition at 1 µM was 2.3%.
